Legend:
Details in all cases: at 1 µM
[1] = molecular target: T1, Prostaglandin G/H synthase 2 (Homo sapiens) (UniProt P35354); test: Selectivity interaction (Panel of non-epigenetic targets (kinases, GPCRs, ion channels, and transporters, Eurofins) ) EUB0000271b PTGS2
T1 sequence (whole entry): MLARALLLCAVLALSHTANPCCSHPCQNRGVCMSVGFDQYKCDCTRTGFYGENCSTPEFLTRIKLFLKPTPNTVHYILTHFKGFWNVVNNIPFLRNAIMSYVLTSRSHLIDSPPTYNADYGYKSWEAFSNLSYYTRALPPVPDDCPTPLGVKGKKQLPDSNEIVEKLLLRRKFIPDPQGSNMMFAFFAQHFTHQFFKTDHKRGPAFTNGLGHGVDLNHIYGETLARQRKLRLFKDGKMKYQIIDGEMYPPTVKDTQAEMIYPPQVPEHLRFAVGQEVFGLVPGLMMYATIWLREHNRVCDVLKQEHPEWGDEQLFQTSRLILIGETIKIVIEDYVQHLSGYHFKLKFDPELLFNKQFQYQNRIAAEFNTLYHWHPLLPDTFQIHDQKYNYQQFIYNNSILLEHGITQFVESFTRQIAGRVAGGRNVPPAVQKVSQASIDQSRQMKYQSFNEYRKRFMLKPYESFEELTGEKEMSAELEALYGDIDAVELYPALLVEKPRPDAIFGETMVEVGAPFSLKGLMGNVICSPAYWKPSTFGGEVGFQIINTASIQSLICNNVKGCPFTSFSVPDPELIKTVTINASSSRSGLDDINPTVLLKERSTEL

[2] = molecular target: T2, Ephrin type-A receptor 3 (Homo sapiens) (UniProt P29320); test: Selectivity interaction (Upstate Kinase Profiler service (Millipore)) EUB0000056c EPHA3
T2 sequence (whole entry): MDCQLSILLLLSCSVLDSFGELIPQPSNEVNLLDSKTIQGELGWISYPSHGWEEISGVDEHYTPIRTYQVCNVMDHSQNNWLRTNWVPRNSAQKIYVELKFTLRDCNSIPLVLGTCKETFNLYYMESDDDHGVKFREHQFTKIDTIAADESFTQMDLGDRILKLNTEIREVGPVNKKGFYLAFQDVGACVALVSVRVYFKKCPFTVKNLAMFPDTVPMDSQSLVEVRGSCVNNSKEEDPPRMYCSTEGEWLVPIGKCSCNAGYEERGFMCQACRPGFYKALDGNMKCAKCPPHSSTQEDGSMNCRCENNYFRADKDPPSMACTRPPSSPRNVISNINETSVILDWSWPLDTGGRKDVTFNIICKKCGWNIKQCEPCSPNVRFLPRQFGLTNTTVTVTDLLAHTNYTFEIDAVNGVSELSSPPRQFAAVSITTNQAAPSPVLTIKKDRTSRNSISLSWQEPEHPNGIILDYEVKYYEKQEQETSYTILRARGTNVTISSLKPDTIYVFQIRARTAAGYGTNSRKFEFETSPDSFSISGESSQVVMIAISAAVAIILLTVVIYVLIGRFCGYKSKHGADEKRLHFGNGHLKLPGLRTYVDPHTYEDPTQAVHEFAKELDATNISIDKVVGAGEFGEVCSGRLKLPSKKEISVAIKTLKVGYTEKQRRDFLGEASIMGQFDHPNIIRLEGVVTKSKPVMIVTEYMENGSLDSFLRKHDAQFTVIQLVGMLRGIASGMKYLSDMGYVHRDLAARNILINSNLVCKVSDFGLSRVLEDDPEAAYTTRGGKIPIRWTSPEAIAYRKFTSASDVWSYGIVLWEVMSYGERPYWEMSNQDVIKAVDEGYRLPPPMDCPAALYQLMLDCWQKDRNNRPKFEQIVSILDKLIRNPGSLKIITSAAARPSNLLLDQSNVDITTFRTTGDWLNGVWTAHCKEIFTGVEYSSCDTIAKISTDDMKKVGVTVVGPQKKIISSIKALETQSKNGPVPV

[3] = molecular target: T3, Ephrin type-B receptor 1 (Homo sapiens) (UniProt P54762); test: Selectivity interaction (Upstate Kinase Profiler service (Millipore)) EUB0000056c EPHB1
T3 sequence (whole entry): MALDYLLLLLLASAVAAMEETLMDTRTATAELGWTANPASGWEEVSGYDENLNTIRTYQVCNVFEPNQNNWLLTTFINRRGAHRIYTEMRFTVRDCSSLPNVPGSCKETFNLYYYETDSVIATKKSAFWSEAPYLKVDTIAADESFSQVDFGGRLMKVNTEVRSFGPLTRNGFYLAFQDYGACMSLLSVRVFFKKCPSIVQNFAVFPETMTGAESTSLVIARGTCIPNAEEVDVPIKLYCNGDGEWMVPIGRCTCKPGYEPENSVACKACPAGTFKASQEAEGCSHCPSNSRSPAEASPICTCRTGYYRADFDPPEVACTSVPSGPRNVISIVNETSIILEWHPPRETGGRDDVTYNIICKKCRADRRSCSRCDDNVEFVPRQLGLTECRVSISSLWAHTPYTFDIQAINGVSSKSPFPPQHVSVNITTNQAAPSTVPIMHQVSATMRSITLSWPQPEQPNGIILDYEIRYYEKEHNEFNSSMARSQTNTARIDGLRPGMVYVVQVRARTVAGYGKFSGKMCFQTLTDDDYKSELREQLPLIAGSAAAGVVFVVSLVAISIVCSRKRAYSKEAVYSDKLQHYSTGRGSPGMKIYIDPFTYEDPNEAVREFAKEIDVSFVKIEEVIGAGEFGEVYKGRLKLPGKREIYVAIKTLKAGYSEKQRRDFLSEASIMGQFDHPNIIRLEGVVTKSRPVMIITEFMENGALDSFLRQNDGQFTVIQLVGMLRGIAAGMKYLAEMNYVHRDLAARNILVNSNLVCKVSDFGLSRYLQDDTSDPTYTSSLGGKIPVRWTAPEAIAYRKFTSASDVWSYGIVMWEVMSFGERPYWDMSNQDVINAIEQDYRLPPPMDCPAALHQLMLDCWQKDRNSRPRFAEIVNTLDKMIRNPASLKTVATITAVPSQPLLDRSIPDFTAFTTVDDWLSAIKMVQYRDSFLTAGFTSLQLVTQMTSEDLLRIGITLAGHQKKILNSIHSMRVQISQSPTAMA

Row | SMILES | % of inhibition [1] | % of inhibition [2] | % of inhibition [3]
1 | Cc1cc(C)cc([C@@H]2c3cc(C)ccc3NC(=O)CN2C(=O)c2ccc(Br)s2)c1 | 8% |  | 
2 | Cc1ccc(-c2ccc3c(ccc4sc5c(c43)NC[C@@H](C)NC5=O)n2)cn1 |  | -1% | 9%
